From patent publication US6407058B1, “Modifying the permeability of physiological barriers” (Eisai Co., Limited, priority 1996, dated 2002)

Assays:
p100/p120 [1] = assay: p100/p120 electrophoretic mobility (band shift) by immunoblotting, MDCK I cells; type: cell-based; settings: MDCK I; for block of PDB-induced p100/p120 band shift: pretreatment 5 minutes (bisindolylmaleimide I or V 2.5 μM, Ro 31-8425 5 μM), then 200 nM PDB 30 minutes; for reversal of PDB-induced p100/p120 band shift: 200 nM PDB 30 minutes, then 2.5 μM inhibitor added in presence of PDB
Procedure: The migration of the cellular proteins p100 and p120 during electrophoresis is increased following PDB-treatment of MDCK I cells. PDB (phorbol-12,13-dibutyrate) is a pharmacological activator of protein kinase C. MDCK I cells are a kidney derived epithelial cell line, with particularly well developed junctional complexes. Cells treated for 30 minutes with either 200 nM PDB (+) or vehicle (−) were then lysed into Laemmli sample buffer, and separated by electrophoresis using 6% acrylamide gels. Proteins were transferred to nitrocellulose and probed with antibodies to p100/p120, and then reprobed with E-cadherin and paxillin antibodies.
(§1) MDCK strain I and II cells were provided by Barry Gumbiner (memorial Sloan-Kettering Cancer Center, NY). LLC-PK1 and Caco-2 cells were obtained from the European Collection of Animal Cell Cultures. All cells were maintained at 37° C. under 5% CO2 in humidified air. MDCK strain I and II cells were maintained in MEM containing 10% FCS, 100 U/ml penicillin, 100 μg/ml streptomycin and 2 mM L-glutamine. Caco-2 cells were maintained in MEM containing 15% FCS, 1% non-essential amino acids and 1 μg/ml bovine insulin (Sigma I-6634). LLC-PK1 cells were grown in M199 (Gibco), 10% FCS, 100 U/ml penicillin, 100 μg/ml streptomycin and 2 mM L-glutamine. For whole cell lysate analysis, 10^5 cells were plated on 6.5 mm diameter, 0.4 μm, polycarbonate Transwell filters from Costar, in 0.25 ml of medium. The basolateral chamber contained 0.75 ml of medium. For immunoprecipitation, 5×10^5 cells were plated onto 24 mm Transwell filters, in 2 ml of medium, with 3 ml of medium in the lower chamber. Cells were used 4-7 days after plating. Tissue culture materials were from Gibco. Porcine brain endothelial cells were isolated and grown by modifications of a previously published procedure (Rubin et al., 1991). Brain capillary fragments were plated on dishes coated with rat tail collagen and human fibronectin. The cultures were fed every other day with growth medium composed of 50% astrocyte-conditioned medium and 50% Dulbecco's Modified Eagle Medium containing 10% plasma-derived serum, 125 μg/ml heparin, antibiotics and glutamine. They were incubated in a humidified atmosphere of 10% CO2 at 37° C. When the endothelial cells were approximately 50% confluent (after 4-6 days in culture), they were trypsinized and plated onto collagen-coated polycarbonate Transwell filters (6.5 mm diameter, 0.4 μm pore size, tissue culture treated, Costar Corp, Cambridge, Mass., U.S.A.) in the same medium (250 μl apically, 750 μl basolaterally). After 2-3 days on filters, the medium was switched to a 1:1 mixture of astrocyte-conditioned medium and a Dulbecco's Modified Eagle Medium-based, chemically defined medium (‘N2’, Rubin et al., 1991; Bottenstein and Sato, 1979). The final concentration of plasma-derived serum was 5%. Human umbilical vein endothelial cells were from Clonetics.
(§2) Whole cell lysates were prepared by rapidly replacing the culture medium in 6.5 mm with hot Laemmli sample buffer, followed by heating at 100° C. for 5 minutes. Immunoprecipitations were carried out at 4° C. Confluent monolayers of cells were washed rapidly with ice cold PBS (containing 0.9 mM CaCl2 and 0.5 mM MgCl2) before addition of 0.5 ml of the appropriate buffer. The filters were then gently scraped, and the lysate was removed and centrifuged at 14000× g. The supernatant was precleared with 10% (w/v) protein A-Sepharose in lysis buffer for 30-60 minutes. Appropriate primary antibodies were added to the lysate, and after 2-3 hours the immunecomplex was isolated, using rabbit anti-mouse secondary antibodies (Jackson Immunoresearch Labs Inc., West Grove, Pa.) and protein A-Sepharose. The beads were washed fives times with lysis buffer, and the bound protein was solubilized in SDS-sample buffer, followed by heating at 100° C. for 5 minutes.
Cell extracts or immunoprecipitates in SDS sample buffer were resolved by SDS-PAGE. […]

p100/p120 [2] = assay: p100/p120 electrophoretic mobility, human umbilical vein endothelial cells (HUVECs); type: cell-based; settings: HUVEC
p100/p120 [3] = assay: p100/p120 electrophoretic mobility (band shift) by immunoblotting, MDCK I cells; type: cell-based
[4] = system: brain endothelial cells tight junction; assay: tight junction permeability in pig brain endothelial cells; type: cell-based; settings: results not shown
p100/p120 [5] = assay: p100/p120 electrophoretic mobility, primary pig brain endothelial cells (PBECs); type: cell-based; settings: for mobility of p120 and p100: LPA 10 μM
Procedure: (§3) Cells were treated with or without 200 nM PDB for 30 minutes, lysed into Laemmli sample buffer, separated by electrophoresis and analysed by immunoblotting with antibodies recognising p100 and p120.
as §1
as §2, with “A-Sepharose.” for “A-Sepharose. The beads were washed fives times with lysis buffer, and the bound protein was solubilized in SDS-sample buffer, followed by heating at 100° C. for 5 minutes.”

[6] = system: pig brain endothelial cell tight junctions; assay: transcellular electrical resistance (TER) of pig brain endothelial cell cultures; type: cell-based
Procedure: After 2 minutes the Transwells were returned to control medium and transcellular electrical resistance measurements were taken every minute for the following 18 minutes.
as §1
Transcellular electrical resistance (TER) measurements were taken with a pair of fixed, current-passing, voltage measuring electrodes (World Precision Instruments, Stevenage, Hertfordshire, U.K.). TER values are expressed in Ωcm^2 and were corrected for the resistance of cell-free filters.

p100/p120 [7] = assay: p100/p120 electrophoretic mobility, human umbilical vein endothelial cells (HUVECs); type: cell-based; settings: HUVEC; for mobility of p100 and p120, blocker alone: 10 μM blocker alone
Procedure: as §3
Human umbilical vein endothelial cells were incubated with histamine (His), pyrilamine (Pyr) or cimetidine (Cim) alone or in combination. As indicated, cells were preincubated in the absence or presence of cimetidine (10 μM) or pyrilamine (10 μM) for 10 minutes and then treated with or without histamine (10 μM) for a further 10 minutes. The cells were extracted and protein analysed by gel electrophoresis and immunoblotting. […] In the following examples, increase mobility of p100/p120 means decreased phosphorylation.
as §2
Cell extracts or immunoprecipitates in SDS sample buffer were resolved by SDS-PAGE. The slab gels were then equilibrated in buffer comprising; 48 mM Tris, 39 mM glycine, 20% methanol and 0.03% SDS. Proteins were transferred to nitrocellulose filters (Hybond ECL; Amersham), which were Ponceau S stained and then blocked for 2 hours at 37° C. with 1% BSA in PBS containing 0.05% Tween-20. Filters were then probed with p120 antibody, at a dilution of 1:2500. After washing, filters were incubated with horseradish peroxidase conjugated anti-mouse antibody (Amersham), at a dilution of 1:5000. The filters were then extensively washed in PBS/0.5% Tween-20, and immunoreactive bands were detected by enhanced chemiluminescence (Amersham) following the manufacturers instructions.

[8] = system: brain endothelial cells tight junction; settings: pig brain endothelial cells (Schulze et al.); cited from earlier work
[9] = 15 minutes, histamine 10 μM, LPA 10 μM, ATP 100 μM

CCCC(=O)O[C@@H]1[C@@H](C)[C@@]2(O)[C@@H](C=C(CO)C[C@@]3(O)C(=O)C(C)=C[C@@H]23)[C@@H]2C(C)(C)[C@]12OC(=O)CCC [4α-PDB]
effect on p100/p120 mobility (p100/p120 [1]; 200 nM 4α-PDB, 30 minutes): no effect

Nc1ncnc2c1ncn2[C@@H]1O[C@H](COP(=O)(O)OP(=O)(O)OP(=O)(O)O)[C@@H](O)[C@H]1O [ATP]
mobility of p100 and p120 (p100/p120 [2]; [9]): increase in the mobility

CCCCCCCC(=O)OCC(CO)OC(=O)CCCCCCC (stereo not shown) [DiC8, 1,2-dioctanoylglycerol]
effect on p100/p120 mobility (p100/p120 [3]; 0.5 mM DiC8, 10 minutes): induces a p100/p120 mobility shift

CCCOc1ccc2c(c1)c1c3c(c4c5ccccc5n5c4c1n2[C@H]1C[C@](O)(C(=O)OC)[C@]5(C)O1)CNC3=O [KT 5926]
effect on p100/p120 mobility (p100/p120 [3]; 1 μM KT 5926): also induced a p100/p120 band shift

Cn1cc(C2=C(c3c4n(c5ccccc35)CCC(CN)C4)C(=O)NC2=O)c2ccccc21 (stereo not shown) [Ro 31-8425]
block of PDB-induced p100/p120 band shift (p100/p120 [1]): completely abolished

CN(C)CCCn1cc(C2=C(c3c[nH]c4ccccc34)C(=O)NC2=O)c2ccccc21 [bisindolylmaleimide I]
block of LPA-induced increase in tight junction permeability [4]: did not block | prevention of sorbitol-induced increase in p100/p120 mobility (p100/p120 [5]; 2.5 μM bisindolylmaleimide 5 minutes pretreatment, then 0.3M sorbitol): not prevented | block of LPA-induced p100/p120 mobility increase (p100/p120 [5]; bisindolylmaleimide 2.5 μM preincubation 10 minutes, then LPA 10 μM 70 minutes): not blocked | transcellular electrical resistance after sorbitol following bisindolylmaleimide pre-incubation ([6]; 2.5 μM bisindolylmaleimide pre-incubation, then 0.3M sorbitol 10 minutes, from 643 before treatment): 93 Ωcm^2 | reversal of PDB-induced p100/p120 band shift (p100/p120 [1]): can be reversed | block of PDB-induced p100/p120 band shift (p100/p120 [1]): completely abolished | block of phorbol dibutyrate effect on p100/p120 mobility (p100/p120 [2]; bisindolylmaleimide 2 μM preincubation 15 minutes, then PDB 200 nM 5 minutes): blocked | block of histamine effect on p100/p120 mobility (p100/p120 [2]; bisindolylmaleimide 2 μM preincubation 15 minutes, then histamine 10 μM 5 minutes): not so strongly affected

CN1C(=O)C(c2c[nH]c3ccccc23)=C(c2c[nH]c3ccccc23)C1=O [bisindolylmaleimide V]
reversal of PDB-induced p100/p120 band shift (p100/p120 [1]): did not reverse | block of PDB-induced p100/p120 band shift (p100/p120 [1]): unable to block

COC[C@@H]([C@H](O)[C@H](O)C(=O)NCC[C@H](C)c1nc(/C=C/C[C@@H]2O[C@]3(C[C@@H](O)[C@@H]2C)O[C@H]([C@H](C[C@H](O)[C@H](C)[C@H](O)[C@H](C)/C=C(C)/C(C)=C/C=C/C(C)=C\C#N)OC)[C@H](OP(=O)(O)O)C3(C)C)co1)N(C)C [calyculin A]
effect on p100/p120 mobility (p100/p120 [3]; 100 nM calyculin A, 60 minutes): upward band shift

CN/C(=N/CCSCc1nc[nH]c1C)NC#N [cimetidine]
mobility of p100 and p120, blocker alone (p100/p120 [7]): no effect

NCCc1c[nH]cn1 [histamine]
mobility of p120 and p100 (p100/p120 [2]; 5 minutes, histamine 10 μM, PDB 200 nM): increased mobility | mobility of p100 and p120 (p100/p120 [2]; [9]): increase in the mobility | mobility of p100 and p120 (p100/p120 [2]; histamine 10 μM, 10 minutes): induced an increased mobility | mobility of p100 and p120, time course (p100/p120 [2]; histamine, times indicated (FIG. 11)): rapid increase in the mobility

OC[C@@H](O)[C@@H](O)[C@H](O)[C@H](O)CO [mannitol]
transcellular electrical resistance ([6]; 0.2-0.4 M mannitol, up to 6 hours): causes a drop | reversibility of drop in transcellular electrical resistance ([6]; 0.4M or 0.8M mannitol 2 minutes, then control medium 18 minutes): fully reversible | time at which drop in transcellular electrical resistance is clearly seen ([6]; 0.8M mannitol, recorded over 2 minutes): ≤ 20 s

C=C1[C@@H](O)[C@@H]2O[C@]3(CC[C@H](/C=C/[C@@H](C)[C@@H]4CC(C)=C[C@@]5(O[C@H](C[C@@](C)(O)C(=O)O)CC[C@H]5O)O4)O3)CC[C@H]2O[C@@H]1[C@@H](O)C[C@H](C)[C@H]1O[C@@]2(CCCCO2)CC[C@H]1C [okadaic acid]
effect on p100/p120 mobility (p100/p120 [3]; 1 μM okadaic acid, 60 minutes): upward band shift

COc1ccc(CN(CCN(C)C)c2ccccn2)cc1 [pyrilamine]
mobility of p100 and p120, blocker alone (p100/p120 [7]): no effect | block of histamine effect on p100/p120 mobility (p100/p120 [7]; 10 μM preincubation 10 minutes, then histamine 10 μM 10 minutes): blocked the histamine effect

OC[C@@H](O)[C@@H](O)[C@H](O)[C@@H](O)CO [sorbitol]
transcellular electrical resistance after treatment ([6]; 0.3M sorbitol, 10 minutes, from 677 before treatment): 73 Ωcm^2

CN[C@@H]1C[C@H]2O[C@@](C)([C@@H]1OC)n1c3ccccc3c3c4c(c5c6ccccc6n2c5c31)C(=O)NC4 [staurosporine]
effect on p100/p120 mobility (p100/p120 [3]; 100 nM staurosporine, 60 minutes): induced a p100/p120 band shift

lysophosphatidic acid [LPA]
mobility of p120 and p100 (p100/p120 [5]; pig brain endothelial cells, 30 minutes): increased mobility | mobility of p120 and p100 (p100/p120 [5]; pig brain endothelial cells, 70 minutes): increased mobility | onset of LPA effect on p100/p120 (p100/p120 [5]; pig brain endothelial cells, further experiments): within a few minutes | tight junction permeability [8]: increases tight junction permeability | mobility of p100 and p120 (p100/p120 [2]; [9]): increase in the mobility
